Results taken from patent EP4800013A1, “PARG INHIBITOR” (Shanghai Qilu Pharmaceutical Research and Development …, priority 2023, dated 2025).

Columns and labels:
PARG = target: T1, PARG (Homo sapiens, UniProt Q86W56); assay: Enzymatic inhibitory activity against PARG, HTRF assay; format: biochemical; details: HTRF; PARylated PARP1 protein as substrate; 60 minutes at room temperature; read-out: IC50 against PARG enzyme
T1 construct: made in house
Experimental: In this experiment, the enzymatic inhibitory activity of the compounds of the present disclosure against PARG was determined using an HTRF (homogeneous time-resolved fluorescence) assay.
HTRF assay reagents were purchased from PerkinElmer (Cat. Nos. 61HISTLB and 610SAXLB). The purified protein was prepared in-house.
PARG enzyme reaction buffer: 50 mM Tris (pH 7.4), 0.1 mg/mL BSA, 3 mM EDTA, 0.4 mM EGTA, 1 mM DTT, 50 mM KCl, and 0.01% Tween 20.
• 1) Using an ultra-micro pipette, the compounds of the present disclosure were serially diluted (starting at 10 µM with 3- to 5-fold serial dilutions) and added to a 384-well reaction plate, with each concentration tested in duplicate wells. Control group 1 was added with 10 µM control compound (100% inhibition group). Control group 2 was added with DMSO (0% inhibition group). After compound addition, the 384-well plate was centrifuged at 1000 rpm for 1 minute. • 2) 2.5 µL of PARG protein was added to each well and incubated with the compounds of the present disclosure at room temperature for 15 minutes, followed by centrifugation at 1000 rpm for 1 minute. • 3) 2.5 µL of PARylated PARP1 protein was added to each well and incubated at room temperature for 60 minutes, followed by centrifugation at 1000 rpm for 1 minute. • 4) 5 µL of His-Tb & SA-XL665 HTRF assay reagents were added to each well and incubated at room temperature for 60 minutes, followed by centrifugation at 1000 rpm for 1 minute. • 5) […] were measured using a PHERAstar FSX microplate reader from BMG. • 6) Data analysis was performed using GraphPad Prism 8. The IC50 values of the compounds of the present disclosure were calculated as follows. […] The average value of duplicate wells in control group 2 (0% inhibition group) was set as the relative inhibition rate of 0%. The HTRF signal values were converted into relative inhibition rates. The IC50 values of the compounds were calculated by fitting the data to a four-parameter logistic model. Table 15: Enzymatic inhibitory activity of the compounds of the present disclosure against PARG

KURAMOCHI cells = assay: Inhibition of proliferation of KURAMOCHI cells (CellTiter-Glo, intracellular ATP); format: cell-based; details: 168 h, incubated for 7 days, read-out: IC50 against KURAMOCHI cells
Experimental: In this experiment, the inhibitory effect of the compounds of the present disclosure on the proliferation of the cancer cell line KURAMOCHI was evaluated by measuring intracellular ATP levels using a bioluminescent assay, and the half maximal inhibitory concentration (IC50) was determined.
RPMI 1640 medium (Cat. No. 11875-093), fetal bovine serum (10099-141), and 100× Pen/Strep (15070-063) were purchased from GIBCO. CellTiter-Glo Luminescent Cell Viability Assay reagent (Cat. No. G7573) was purchased from Promega.
• 1) Day 1: KURAMOCHI cells were counted using a cell counter and seeded into a 96-well culture plate at a density of 4000 cells per well in 100 µL medium. The plate was incubated overnight in an incubator (37°C, 5% CO2). • 2) Day 2: Using a D300e digital dispenser (TECAN), 500 nL of serially diluted test compounds of the present disclosure (starting at 10 µM, a total of 9 concentrations, 1:4 dilution) were added to the cells in the culture plate. The final concentration of DMSO was 0.5%. The cell culture plate was incubated for 7 days in a cell culture incubator (37°C, 5% CO2). Control group 1 received only medium and DMSO (100% inhibition group). Control group 2 received only DMSO (0% inhibition group). The final concentration of DMSO in both groups was 0.5%. • 3) Day 9: 100 µL of CellTiter-Glo reagent was added to each well. The plate was shaken at 500 rpm for 2 minutes, centrifuged at 1000 rpm for 1 minute, and then incubated at room temperature in the dark for 10 minutes to stabilize the luminescence signal. • 4) Luminescence signals were measured using an EnVision microplate reader (PerkinElmer). • 5) Data analysis was performed using GraphPad Prism 8. The IC50 values of the compounds of the present disclosure were calculated as follows. The CTG signal values were analyzed. The average inhibition rate of control group 1 (100% inhibition group) was set as the relative inhibition rate of 100%. The average inhibition rate of control group 2 (0% inhibition group) was set as the relative inhibition rate of 0%. The CTG signal values were converted into relative inhibition rates. The inhibition percentage (inhibition%) for each concentration of the compounds of the present disclosure was calculated according to the following formula: Inhibition% = (b−x)/(b−a)*100%; [formula] • a = CTG value (highest concentration), b = CTG value (blank well), x = CTG value (test well). • IC50 was calculated using GraphPad Prism 8. • (1) The concentration and inhibition rate corresponding to each well were recorded. Statistical calculation was performed using Log10 (compound concentration). • (2) The data were input into GraphPad Prism 8 and Analysis was selected. • (3) Nonlinear regression (curve fit) was selected. • (4) Log (inhibitor) vs. response - Variable slope was selected. • (5) The calculation formula was selected, and the calculation was performed according to the following formula: Y = Bottom + (Top - Bottom) / (1 + 10 ^ ((LogIC50 - X) * HillSlope)); X: log of dose or concentration; Y: response; Top and Bottom: maximum and minimum response. • (6) The IC50 values were calculated by fitting the data. Table 16: Inhibitory effect of the compounds of the present disclosure on the proliferation of KURAMOCHI cells

T1 sequence (Q86W56 whole entry): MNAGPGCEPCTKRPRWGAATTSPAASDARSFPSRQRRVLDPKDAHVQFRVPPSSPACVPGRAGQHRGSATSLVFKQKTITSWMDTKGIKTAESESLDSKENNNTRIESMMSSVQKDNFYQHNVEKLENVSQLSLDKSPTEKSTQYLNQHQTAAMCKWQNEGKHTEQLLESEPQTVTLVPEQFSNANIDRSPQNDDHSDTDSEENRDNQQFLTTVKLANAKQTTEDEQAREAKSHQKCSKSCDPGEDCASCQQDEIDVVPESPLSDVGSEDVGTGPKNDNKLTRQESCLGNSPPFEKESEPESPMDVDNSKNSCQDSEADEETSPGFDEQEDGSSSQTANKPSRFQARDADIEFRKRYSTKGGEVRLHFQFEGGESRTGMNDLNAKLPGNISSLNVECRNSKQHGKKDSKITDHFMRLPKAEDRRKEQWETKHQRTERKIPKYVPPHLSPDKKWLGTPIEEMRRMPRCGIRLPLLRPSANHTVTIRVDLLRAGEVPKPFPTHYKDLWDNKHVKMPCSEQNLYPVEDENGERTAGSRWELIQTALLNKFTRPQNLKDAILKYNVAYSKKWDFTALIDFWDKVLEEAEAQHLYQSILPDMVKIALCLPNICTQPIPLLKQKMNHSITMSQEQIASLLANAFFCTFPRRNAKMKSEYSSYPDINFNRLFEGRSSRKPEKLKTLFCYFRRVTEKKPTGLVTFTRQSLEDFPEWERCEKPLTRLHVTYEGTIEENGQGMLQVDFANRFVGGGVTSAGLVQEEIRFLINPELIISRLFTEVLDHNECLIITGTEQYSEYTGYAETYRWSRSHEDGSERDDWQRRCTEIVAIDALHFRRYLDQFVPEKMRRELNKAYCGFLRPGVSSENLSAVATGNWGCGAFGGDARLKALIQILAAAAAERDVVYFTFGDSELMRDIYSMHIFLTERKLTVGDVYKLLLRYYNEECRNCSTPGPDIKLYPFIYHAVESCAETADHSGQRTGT

Compound | IC50 (PARG) [µM] | IC50 (KURAMOCHI cells) [µM]
C=CCn1c(=O)n(-c2nnc(C(F)F)s2)c2cc(S(=O)(=O)NC3(C#N)CC3)cc(N3CCN(C(=O)[C@@H](C)CC)CC3)c21 [Compound 067W2] | 0.0131 | 0.011
C=CCn1c(=O)n(-c2nnc(C(F)F)s2)c2cc(S(=O)(=O)NC3(C#N)CC3)cc(N3CCN(C(=O)[C@H](C)CC)CC3)c21 [Compound 067Wl] | 0.0197 | 0.023
C=CCn1c(=O)n(-c2nnc(C(F)F)s2)c2cc(S(=O)(=O)NC3(C#N)CC3)cc(N3CCN(C(=O)C4CCCC4)CC3)c21 [Compound 067X] | 0.0211 | 0.023
C=CCn1c(=O)n(-c2nnc(C(F)F)s2)c2cc(S(=O)(=O)NC3(C#N)CC3)cc(N3CCN(C(=O)C4(C)CC4)CC3)c21 [Compound 067Y] | 0.0212 | 0.034
C=CCn1c(=O)n(-c2nnc(C(F)F)s2)c2cc(S(=O)(=O)NC3(CF)CC3)cc(N3CCN(C(=O)C(C)C)CC3)c21 [Compound 068A] | 0.0035 | 0.004
C=CCn1c(=O)n(-c2nnc(C(F)F)s2)c2cc(S(=O)(=O)NC3(C)COC3)cc(N3CCN(C(=O)C(C)C)CC3)c21 [Compound 068B] | 0.0158 | 0.017
C=CCn1c(=O)n(-c2nnc(C(F)(F)F)s2)c2cc(S(=O)(=O)NC3(C#N)CC3)cc(N3CCN(C(=O)C(C)C)CC3)c21 [Compound 070A] | 0.0153 | 0.018
C=CCn1c(=O)n(-c2nnc(C(F)(F)F)s2)c2cc(S(=O)(=O)NC3(C#N)CC3)cc(N3CCN(C(=O)C(C)(C)O)CC3)c21 [Compound 070B] | 0.0203 | 0.025
C=CCn1c(=O)n(-c2nnc(C(F)F)s2)c2cc(S(=O)(=O)NC3(C#N)CC3)cc(N3CCN(C(=O)C(C)(C)O)[C@H](C)C3)c21 [Compound 071C2] | 0.0089 | 0.05
C=CCn1c(=O)n(-c2nnc(C(F)F)s2)c2cc(S(=O)(=O)NC3(C#N)CC3)cc(N3CCN(C(=O)C4CCOC4)CC3)c21 (stereo not shown) [Compound 072B] | 0.0159 | 0.053
C=CCn1c(=O)n(-c2nnc(C(F)F)s2)c2cc(S(=O)(=O)NC3(C#N)CC3)cc(N3CCN(C(=O)C(C)(O)C(F)(F)F)CC3)c21 (stereo not shown) [Compound 073A] | 0.0306 | 0.034
C=CCn1c(=O)n(-c2nnc(C(F)F)s2)c2cc(S(=O)(=O)NC3(C#N)CC3)cc(N3CCN(C(=O)C4(O)CCC4)CC3)c21 [Compound 073B] | 0.0045 | 0.022
C=CCn1c(=O)n(-c2nnc(C(F)F)s2)c2cc(S(=O)(=O)NC3(C#N)CC3)cc(N3CCN([S+]([O-])C(C)(C)C)CC3)c21 (stereo not shown) [Compound 074A-11] | 0.0028 | 0.004
C=CCn1c(=O)n(-c2nnc(C(F)F)s2)c2cc(S(=O)(=O)NC3(C#N)CC3)cc(N3CCN(S(=O)(=O)C(C)(C)C)CC3)c21 [Compound 074A] | 0.0008 | 0.001
C=CCn1c(=O)n(-c2nnc(C(F)F)s2)c2cc(S(=O)(=O)NC3(C#N)CC3)cc(N3CCN(S(=O)(=O)C4(C)CC4)CC3)c21 [Compound 074B] | 0.0027 | 0.003
C=CCn1c(=O)n(-c2nnc(C(F)F)s2)c2cc(S(=O)(=O)NC3(C#N)CC3)cc(N3CCN(S(=O)(=O)C4CCOC4)CC3)c21 (stereo not shown) [Compound 074C] | 0.0029 | 0.013

Compound | IC50 (PARG) [µM] | IC50 (KURAMOCHI cells) [µM]
C=CCn1c(=O)n(-c2nnc(C(F)F)s2)c2cc(S(=O)(=O)NC3(C#N)CC3)cc(N3CCN(S(=N)(=O)C(C)C)CC3)c21 (stereo not shown) [Compound 074G] | 0.0033 | 0.04
C=CCn1c(=O)n(-c2nnc(C(F)F)s2)c2cc(S(=O)(=O)NC3(C#N)CC3)cc(N3CCN(S(=O)(=O)N(C)C)CC3)c21 [Compound 074H] | 0.0075 | 0.012
C#CCn1c(=O)n(-c2nnc(C(F)F)s2)c2cc(S(=O)(=O)NC3(C#N)CC3)cc(N3CCN(C(=O)C(C)C)CC3)c21 [Compound 074K] | 0.0019 | 0.008
C=CCn1c(=O)n(-c2nnc(C(F)F)s2)c2cc(S(=O)(=O)NC3(C#N)CC3)cc(N3CCN([S+]([O-])C(C)C)CC3)c21 (stereo not shown) [Compound 074M] | 0.0062 | 0.016
C=CCn1c(=O)n(-c2nnc(C(F)F)s2)c2cc(S(=O)(=O)NC3(C#N)CC3)cc(N3CCN(C(=O)C4CCCN4C(=O)OC)CC3)c21 (stereo not shown) [Compound 076E] | 0.0049 | 0.035
C=CCn1c(=O)n(-c2nnc(C(F)F)s2)c2cc(S(=O)(=O)NC3(C#N)CC3)cc(N3CCN(C(=O)[C@@H]4CCCO4)CC3)c21 [Compound 076H1] | 0.0144 | 0.034
C=CCn1c(=O)n(-c2nnc(C(F)F)s2)c2cc(S(=O)(=O)NC3(C#N)CC3)cc(N3CCN(C(=O)[C@H]4CCCO4)CC3)c21 [Compound 076H2] | 0.014 | 0.04
C=CCn1c(=O)n(-c2nnc(C(F)F)s2)c2cc(S(=O)(=O)NC3(C#N)CC3)cc(N3CCN(C(=O)C4(C)CCCO4)CC3)c21 (stereo not shown) [Compound 076J] | 0.007 | 0.009
C[C@H]1CN(c2cc(S(=O)(=O)NC3(C#N)CC3)cc3c2nc(OC2CC2)n3-c2nnc(C(F)F)s2)C[C@H](C)N1 [Compound 077A] | 0.0104 | 0.011
C[C@H]1CN(c2cc(S(=O)(=O)NC3(C)CC3)cc3c2nc(C2CCCO2)n3-c2nnc(C(F)F)s2)C[C@H](C)N1 (stereo partly shown) [Compound 077B] | 0.0034 | 0.007
C[C@H]1CN(c2cc(S(=O)(=O)NC3(C)CC3)cc3c2nc(OC2CC2)n3-c2nnc(C(F)F)s2)C[C@H](C)N1 [Compound 077F] | 0.0092 | 0.009
CC(C)Oc1nc2c(N3C[C@H](C)N[C@@H](C)C3)cc(S(=O)(=O)NC3(C)CC3)cc2n1-c1nnc(C(F)F)s1 [Compound 077G] | 0.0016 | 0.002
CC(C)Oc1nc2c(N3C[C@H](C)N[C@@H](C)C3)cc(S(=O)(=O)NC3(C#N)CC3)cc2n1-c1nnc(C(F)F)s1 [Compound 077H] | 0.003 | 0.005
C[C@H]1CN(c2cc(S(=O)(=O)NC3(C)CC3)cc3c2nc(C2COCCO2)n3-c2nnc(C(F)F)s2)C[C@H](C)N1 (stereo partly shown) [Compound 077N] | 0.0034 | 0.008
COCc1nc2c(N3C[C@H](C)N[C@@H](C)C3)cc(S(=O)(=O)NC3(C)CC3)cc2n1-c1nnc(C(F)F)s1 [Compound 077T] | 0.0278 | 0.035
C[C@H]1CN(c2cc(S(=O)(=O)NC3(C)CC3)cc3c2nc(N2CCOCC2)n3-c2nnc(C(F)F)s2)C[C@H](C)N1 [Compound 077V] | 0.0217 | 0.037
